Experimental data as given in patent US10472663B2, “Procedure for the rapid determination of bacterial susceptibility to antibiotics that inhibit protein synthesis” (ABM TECHNOLOGIES, LLC, priority 2015, dated 2019).

Key:
Type in all cases: cell-based
Escherichia coli [1] = experiment: Micromax assay of ciprofloxacin-induced DNA fragmentation after a protein synthesis inhibitor (Example 1); details: for DNA fragmentation of nucleoids: tobramycin 4 μg/ml 10 min followed by ciprofloxacin 1 μg/ml 30 min
Protocol: As an exemplification of the principals previously described, two strains of Escherichia coli exponentially growing in Mueller-Hinton broth were assayed (FIGS. 1-6). The first strain of Escherichia coli was a TG1 strain susceptible to both the aminoglycoside tobramycin (an inhibitor of protein synthesis) and the quinolone ciprofloxacin (an agent which induces DNA fragmentation by trapping of topoisomerases in DNA) (FIGS. 1-3). The second strain was a clinical isolate resistant to tobramycin and susceptible to ciprofloxacin (FIGS. 4-6). Four treatments were applied to each strain to rapidly distinguish the susceptible and the resistant strain to tobramycin.
One portion of both bacterial strains was incubated with tobramycin at 4 μg/ml for 40 minutes (FIGS. 1 and 4), a dosage indicated by the CLSI as the breakpoint of susceptibility to tobramycin in the standard antibiogram based on microdilution. Another portion of both strains was incubated with ciprofloxacin at 1 μg/ml for 30 min (FIGS. 2 and 5). Still another portion of both strains was incubated with tobramycin at 4 μg/ml for 10 min followed by ciprofloxacin at 1 μg/ml for 30 min, without removing the tobramycin (FIGS. 3 and 6). A final portion was left with no antibiotic.
After each incubation cells were processed using the variant of the Micromax technology to visualize the nucleoids, i.e. bacterial chromosomal DNA, in all the cells of the population. Cells from each culture were immersed in an agarose microgel on a slide and incubated with a specific lysing solution to remove the cell wall in all the cells and release in the microgel the nucleoids contained inside the bacteria. These are dried, stained with a high sensitive fluorochrome for DNA like SYBR Gold and visualized under fluorescence microscopy. FIGS. 1-6 depicts representative images captured under each of the conditions described below.
The above described methodology was employed to rapidly determine the susceptibility of 12 strains of E. coli to tobramycin. One portion of each bacterial strain was incubated with tobramycin at the susceptibility breakpoint dosage, 4 μg/ml, for 40 min. A portion of each strain was incubated with ciprofloxacin at 1 μg/ml for 30 min. Still another portion of each strain was incubated with tobramycin at 4 μg/ml for 10 min followed by ciprofloxacin at 1 μg/ml for 30 min, without removing the tobramycin. A final portion of each strain was left with no antibiotic. E. coli strains were identified as susceptible or not based on the levels of DNA fragmentation in the portion of each strain incubated with ciprofloxacin and the portion incubated with tobramycin and ciprofloxacin.
The principals exemplified in Example 1 were confirmed with the aminoglycoside amikacin. Briefly, a susceptible and resistant strain of E. coli were exposed to similar conditions to those described in Example 1, except that amikacin was utilized as the protein synthesis inhibiting antibiotic. Specifically, each was strain subjected to four treatments. One portion received no antibiotics, and another portion received only a quinolone, such as ciprofloxacin or norfloxacin to induce DNA fragmentation. Still another portion received the protein synthesis inhibiting antibiotic aminoglycoside amikacin, followed by the quinolone. Another portion received only amikacin. A final portion received neither antibiotic.
The principals exemplified in Example 1 were further confirmed with the aminoglycoside gentamicin. Briefly, the rapid test was performed on 15 isolated E. coli strains according to the methodology described above, except that gentamicinin was utilized as the protein synthesis inhibiting antibiotic. Suppressed DNA fragmentation were used to characterize bacterial susceptibility and those characterizations were verified with the standard antibiogram for gentamicin by microdilution. […]

Escherichia coli [2] = experiment: Variant Micromax assay of cell enlargement by low-dose mitomycin C after tobramycin (Example 8)
Protocol: As an example, two strains of Escherichia coli exponentially growing in Mueller-Hinton broth were incubated under four different conditions and then assayed. One strain was susceptible and the other resistant to the aminoglycoside tobramycin (an inhibitor of protein synthesis). For the purpose of rapidly distinguishing susceptible and non-susceptible strains to tobramycin each strain was incubated under four conditions.
A portion of each strain was incubated with tobramycin at 4 μg/ml for 90 minutes. As described previously, this dose is indicated by the CLSI as the breakpoint of susceptibility to tobramycin in the standard antibiogram based on microdilution. Another portion of both strains was incubated in Mitomycin C at 0.5 μg/ml for 60 minutes. Still another portion of each strain was incubated with tobramycin at 4 μg/ml for 30 minutes followed by mitomycin C at 0.5 μg/ml for 60 minutes, without removing the tobramycin. A final portion of both strains was not incubated with either antibiotic.
After the incubation, cells were processed using a variant Micromax technology to visualize any enlargement or not of the bacteria. Samples from cells from the culture were immersed in an agarose microgel on a slide, dried, stained with a highly sensitive fluorochrome for DNA like SYBR Gold and visualized under fluorescence microscopy to visualize cell shape and size. Images were similar those correspondent to the previous figure.

Escherichia coli [3] = experiment: Micromax assay of mitomycin C-induced DNA fragmentation after tobramycin (Example 2); details: for DNA fragmentation of nucleoids: tobramycin 4 μg/ml 30 min followed by mitomycin C 50 μg/ml 60 min
Protocol: FIGS. 7-9 depict a TG1 strain susceptible to the aminoglycoside tobramycin, an inhibitor of protein synthesis, and mitomycin C, an agent which induces DNA damage. The other strain illustrated in FIGS. 10-12 was a clinical isolate resistant to tobramycin.
One portion of both bacterial strains was incubated with tobramycin at 4 μg/ml for 90 min (FIGS. 7 and 10), a dosage indicated by the CLSI as the breakpoint of susceptibility to tobramycin in the standard antibiogram based on microdilution. Another portion of both strains was incubated with mitomycin C at 50 μg/ml for 60 min (FIGS. 8 and 11). Still another portion of both strains was incubated with tobramycin at 4 μg/ml for 30 min followed by mitomycin C at 50 μg/ml for 60 min, without removing the tobramycin (FIGS. 9 and 12). A final portion was left with no antibiotic.
After incubation, cells were processed using a variant of the Micromax technology to visualize nucleoids, i.e. bacterial chromosomal DNA, in all the cells of the population. Samples from cells from the culture are immersed in an agarose microgel on a slide and incubated with a specific lysing solution to remove the cell wall in all the cells and release in the microgel the nucleoids contained inside the bacteria. These are dried, stained with a highly sensitive fluorochrome for DNA like SYBR Gold and visualized under fluorescence microscopy, Nucleoids from E. coli obtained using the Micromax assay are represented in FIGS. 7-12, FIGS. 7-9 correspond to a strain susceptible to tobramycin (TG1) and FIGS. 10-12 to a strain resistant to tobramycin.

[4] = rapid test, confirmed by microdilution antibiogram, 12 strains for tobramycin, 15 for gentamicin
[5] = tobramycin-resistant clinical isolate
[6] = tobramycin-susceptible TG1 strain

## NC[C@H]1O[C@H](O[C@H]2[C@H](O)[C@@H](O[C@H]3O[C@H](CO)[C@@H](O)[C@H](N)[C@H]3O)[C@H](N)C[C@@H]2N)[C@H](N)C[C@@H]1O [tobramycin]
Escherichia coli [1]; [4]
  E. coli strains identified as non-susceptible (resistant): three of the twelve strains as non-susceptible
  E. coli strains identified as susceptible: nine of the twelve strains as susceptible
Escherichia coli [1]; [5]
  DNA fragmentation of nucleoids: the DNA was extensively fragmented
Escherichia coli [1]; [6]
  DNA fragmentation of nucleoids: nucleoids with reduced level of DNA fragmentation
Escherichia coli [1]; tobramycin alone 4 μg/ml 40 min, both tobramycin-susceptible and -resistant strains
  modification of nucleoids: did not result in any modifications of the nucleoids
Escherichia coli [2]; tobramycin 4 μg/ml 30 minutes followed by mitomycin C 0.5 μg/ml 60 minutes, tobramycin-resistant strain
  cell enlargement: appeared enlarged
Escherichia coli [2]; tobramycin alone 4 μg/ml 90 minutes, both strains
  bacterial shape and size: does not affect bacterial shape and size
Escherichia coli [3]; [5]
  DNA fragmentation of nucleoids: the DNA remained fragmented
Escherichia coli [3]; [6]
  DNA fragmentation of nucleoids: nucleoids without observable DNA fragmentation
Escherichia coli [3]; tobramycin alone 4 μg/ml 90 min, both strains
  modification of nucleoids: does not result in modifications of the nucleoids
